Measured values reported in patent US20050130134A1, “Means and methods for monitoring non-nucleoside reverse transcriptase inhibitor antiretroviral therapy and guiding therapeutic decisions in the treatment HIV-AIDS” (ViroLogic, Inc., priority 2000, published 2005).
“Also recorded” adds a separate entry of the source.

Assays:
[1] = system: RTV-209 patient virus (RT E138A, Y188L); assay: Phenotypic susceptibility assay, RTV-209 (patient 97-209); type: cell-based, HIV-1
Protocol: (§1) Transfections were performed using a calcium-phosphate precipitation procedure. […] Cell lysates were assayed for luciferase activity (FIG. 3). […] The drug inhibition curves are shown in (FIG. 3).
This patient had been previously treated with AZT, ddI, d4T and 3TC (NRTIs), indinavir (a PRIs) and adefovir. […].

[2] = system: RTV-644 patient virus (RT K101E, G190S); assay: Phenotypic susceptibility assay, RTV-644 (patient 97-644 / 98-644); type: cell-based, HIV-1; conditions: for decrease in susceptibility: RTV-644 patient virus; for change in susceptibility / resistance: RTV-644 patient virus compared to reference virus
Protocol: (§2) Resistance tests were carried out with resistance test vectors using two host cell types. Resistance test vector viral particles were produced by a first host cell (the resistance test vector host cell) that was prepared by transfecting a packaging host cell with the resistance test vector and the packaging expression vector. The resistance test vector viral particles were then used to infect a second host cell (the target host cell) in which the expression of the indicator gene is measured.
(§3) The resistance test vectors containing a functional luciferase gene cassette were constructed and host cells were transfected with the resistance test vector DNA. The resistant test vectors contained patient-derived reverse transcriptase and protease sequences that were either susceptible or resistant to the antiretroviral agents, such as nucleoside reverse transcriptase inhibitors, non-nucleoside reverse transcriptase inhibitors and protease inhibitors. The resistance test vector viral particles produced by transfecting the resistance test vector DNA into host cells, either in the presence or absence of protease inhibitors, were used to infect target host cells grown either in the absence of NRTI or NNRTI or in the presence of increasing concentrations of the drug. The amount of luciferase activity produced in infected target host cells in the presence of drug was compared to the amount of luciferase produced in infected target host cells in the absence of drug. Drug resistance was measured as the amount of drug required to inhibit by 50% the luciferase activity detected in the absence of drug (inhibitory concentration 50%, IC50). The IC50 values were determined by plotting percent drug inhibition vs. log10 drug concentration.
(§4) Host cells were seeded in 10-cm-diameter dishes and were transfected several days after plating with resistance test vector plasmid DNA and the envelope expression vector. Transfections were performed using a calcium-phosphate precipitation procedure. The cell culture media containing the DNA precipitate was replaced with fresh medium, from one to 24 hours, after transfection. […] HIV capsid protein (p24) levels in the harvested cell culture media were determined by an EIA method as described by the manufacturer (SIAC; Frederick, Md.). […] The inhibitory effect of the drug was determined using the following equation: % luciferase inhibition=1-(RLUluc[drug]÷RLUluc)×100 where RLUluc [drug] is the relative light unit of luciferase activity in infected cells in the presence of drug and RLUluc is the Relative Light Unit of luciferase activity in infected cells in the absence of drug. […]

[3] = system: patient 780 virus (RT K103N, P225H); assay: Phenotypic susceptibility assay, patient 780 (FIG. 8B); type: cell-based, HIV
Protocol: Phenotypic Drug Susceptibility and Resistance Profile: Patients 780. This is a second example of the third pattern of NNRTI susceptibility/resistance.
as §1

[4] = system: HIV-1 reverse transcriptase Y181I (Y181I-RTV); assay: Phenotypic susceptibility assay, site directed mutant Y181I-RTV; type: cell-based; conditions: >1 loss of susceptibility
Protocol: as §2
as §3, with “The amount of luciferase activity produced in infected target host cells in the presence of drug was compared to the amount of luciferase produced in infected target host cells in the absence of drug. Drug resistance was measured as the amount of drug required to inhibit by 50% the luciferase activity detected in the absence of drug (inhibitory concentration 50%, IC50).” left out
as §4, with “vector.” for “vector. Transfections were performed using a calcium-phosphate precipitation procedure. The cell culture media containing the DNA precipitate was replaced with fresh medium, from one to 24 hours, after transfection.”

[5] = system: RTV-675 patient virus (RT A98G); conditions: >1 decreased susceptibility
Protocol: as §2, §3
(§5) Host cells were seeded in 10-cm-diameter dishes and were transfected several days after plating with resistance test vector plasmid DNA and the envelope expression vector. Transfections were performed using a calcium-phosphate precipitation procedure. The cell culture media containing the DNA precipitate was replaced with fresh medium, from one to 24 hours, after transfection. Cell culture media containing resistance test vector viral particles was harvested one to four days after transfection and was passed through a […] filter before being stored at −80° C. HIV capsid protein (p24) levels in the harvested cell culture media were determined by an EIA method as described by the manufacturer (SIAC; Frederick, Md.). Before infection, target cells (293 and 293/T) were plated in cell culture media. Control infections were performed using cell culture media from mock transfections (no DNA) or transfections containing the resistance test vector plasmid DNA without the envelope expression plasmid. One to three or more days after infection the media was removed and cell lysis buffer (Promega) was added to each well. […] The inhibitory effect of the drug was determined using the following equation: % luciferase inhibition=1-(RLUluc[drug]÷RLUluc)×100 where RLUluc [drug] is the relative light unit of luciferase activity in infected cells in the presence of drug and RLUluc is the Relative Light Unit of luciferase activity in infected cells in the absence of drug. IC50 values were obtained from the sigmoidal curves that were generated from the data by plotting the percent inhibition of luciferase activity vs. the log10 drug concentration.

[6] = system: RTV-652 patient virus (RT V108I); conditions: >1 decrease, <1 increased susceptibility
Protocol: as §2, §3, §5

[7] = system: patient 302 virus clones K103N, P225H versus K103N, I135M, R211K; conditions: patient 302 clones with versus without P225H, FIG. 8C
Protocol: as §2, §3, §5

[8] = system: HIV-1 reverse transcriptase P225H plus K103N, Y181C or both; assay: Phenotypic susceptibility assay, P225H with K103N, Y181C or K103N+Y181C; type: cell-based; conditions: P225H added to K103N, Y181C or K103N+Y181C versus corresponding RTV lacking P225H
Protocol: as §1
Resistance test vectors were constructed containing the P225H mutation alone and in combination with other known drug resistance mutations (K103N, Y181C) known to modulate the HIV susceptibility to NNRTIs. […] (Sakar G and Sommar S S (1994) Biotechniques 8(4), 404-407). […] The P225H mutation was also introduced into a RTV containing additional mutations at K103N, Y181C or both (K103N+Y181C).

[9] = system: RTV-955 patient virus (RT K101E, K103N, Y181C, G190A mixtures); assay: Phenotypic susceptibility assay, RTV-955 (patient 98-955); type: cell-based, HIV-1
Protocol: as §1
This patient had been previously treated with nelfinavir (a PR1).

[10] = system: RTV-1058 clone 10 (RT L100I, K103N, Y188L); assay: Phenotypic susceptibility assay, RTV-1058 clone 10; type: cell-based, HIV-1
Protocol: as §1

[11] = system: HIV reverse transcriptase mutation at codon 230 alone or in combination with codon 181; assay: Phenotypic susceptibility assay, mutation at codon 230 alone or with codon 181; type: cell-based
[12] = system: RTV-302 patient virus (RT K103N, I135M, T200A, P225H); assay: Phenotypic susceptibility assay, RTV-302 (patient 97-302); type: cell-based, HIV-1
Protocol: as §1
This patient had been treated with d4T, indinavir and DMP-266 for a period of approximately 10 months. […] An IC50 was determined for each drug tested. Susceptibility of the patient virus to each drug was examined and compared to known patterns of susceptibility. […] Patient sample 97-302 was examined further for genotypic changes associated with the observed pattern of susceptibility.

[13] = system: RTV-1058 clone 4 (RT K103N, Y188L); assay: Phenotypic susceptibility assay, RTV-1058 clone 4; type: cell-based, HIV-1
Protocol: as §1

| SMILES | decrease in susceptibility [1] | decrease in susceptibility [2] | change in susceptibility / resistance [2] | change in susceptibility [3] | fold change in susceptibility compared to wild type control RTV [4] | fold change in susceptibility [5] | fold change in susceptibility [6] | effect of P225H on resistance associated with K103N [7] | change in susceptibility [8] | decrease in susceptibility [9] | loss of susceptibility [10] | change in susceptibility [11] | change in susceptibility [12] | loss of susceptibility [13] |
| --- | --- | --- | --- | --- | --- | --- | --- | --- | --- | --- | --- | --- | --- | --- |
| Cc1ccnc2c1NC(=O)c1cccnc1N2C1CC1 [nevirapine] | greater than 800 fold | 600 fold | resistant; also recorded: large reduction in susceptibility | reduced susceptibility | 740 fold | 6 fold | 5 fold | does not alter the amount of nevirapine resistance | did not significantly change; also recorded: little or no change; also recorded: does not decrease the amount of nevirapine resistance | 530 fold | greater than 800 fold | significant decrease | significant decrease; also recorded: reduced susceptibility | greater than 800 fold |
| CC(C)Nc1cccnc1N1CCN(C(=O)c2cc3cc(NS(C)(=O)=O)ccc3[nH]2)CC1 [delavirdine] | 75 fold | 2.5 fold | little or no resistance | reduced susceptibility | 20 fold | 2.1 fold | 0.97 fold | reduces the amount delavirdine resistance | more susceptible to inhibition; also recorded: increase; also recorded: decreases the amount of delavirdine resistance | 4 fold | greater than 250 fold | significant decrease | modest decrease; also recorded: reduced susceptibility | 85 fold |
| O=C1Nc2ccc(Cl)cc2[C@@](C#CC2CC2)(C(F)(F)F)O1 [efavirenz] | – | – | – | – | 1.4 fold | – | – | – | – | – | – | – | – | – |
